Results as given in the supplement of paper PMC4862054.

These compounds were tested on Hs578T (assay: drug sensitivity score (DSS), CellTox Green (DSS (AUC-based score)); higher = stronger drug effect (viability inhibition or cytotoxicity); extreme values may be limits of the assay). Conditions: incubation time: 72 h.
Procedure, shortened: (§1)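 Breast cancer cell lines, seeded as 20 µl suspension, were incubated 72 h with compound in 384-well plates at 5 concentrations in 10-fold steps over a 10,000-fold range set for each compound. Fluorescence from CellTox Green was read at 485/520 nm before CellTiter-Glo luminescence, which was read after 10 min at room temperature. Every plate was normalised to 0.1 % DMSO and a positive kill control, and the drug sensitivity score was taken from the area under the fitted dose-response curve.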

Going from `COc1cc2c(Oc3ccc4[nH]c(C)cc4c3F)ncnc2cc1OCCCN1CCCC1` [Cediranib] to `O=C(Cc1ccc(-c2ccc(OCCN3CCOCC3)cc2)cn1)NCc1ccccc1` [KX2-391], the drug sensitivity score rises from 0 to 11.4.

Going from `O=C(/C=C/c1cccnc1)NCCCCC1CCN(C(=O)c2ccccc2)CC1` [Daporinad] to `Nc1nc2[nH]cc(CCc3ccc(C(=O)N[C@@H](CCC(=O)O)C(=O)O)cc3)c2c(=O)[nH]1` [Pemetrexed], the drug sensitivity score rises from 0 to 0.581.

`C[C@H]1C[C@@H]2[C@H]([C@@H](O)C[C@@]3(C)[C@H]2CC[C@]3(O)C(=O)CO)[C@@]2(C)C=CC(=O)C=C12` [Methylprednisolone] and `Cc1cnc(NC(=O)Nc2cc(Br)c(C)cc2OC[C@@H]2CNCCO2)cn1` [Rabusertib] are the same in drug sensitivity score: 0 for the first, 0 for the second.

`Oc1ncc(N(CCCl)CCCl)c(O)n1` [Uracil mustard] was tested, and the drug sensitivity score was 0.

What follows are compounds tested on MCF-10A in the same assay as above. Conditions: incubation time: 72 h.
Procedure, shortened: as §1

Going from `C=CC(=O)N1CCC[C@@H](n2nc(-c3ccc(Oc4ccccc4)cc3)c3c(N)ncnc32)C1` [Ibrutinib] to `O=C(Cc1ccc(-c2ccc(OCCN3CCOCC3)cc2)cn1)NCc1ccccc1` [KX2-391], the drug sensitivity score rises from 0 to 15.5.

First: CNC(=O)c1cc(Oc2ccc(NC(=O)Nc3cc(C(C)(C)C)nn3-c3ccc4ncccc4c3)c(F)c2)ccn1 [Rebastinib]
Second: CCCS(=O)(=O)Nc1ccc(F)c(C(=O)c2c[nH]c3ncc(-c4ccc(Cl)cc4)cc23)c1F [Vemurafenib]
The drug sensitivity score of the first is lower: 0 for the first, 2.59 for the second.

`O=C(O)C1(C(=O)O)CCC1.[NH2-].[NH2-].[Pt+2]` [Carboplatin] and `C[C@H]1C[C@@H]2[C@H]([C@@H](O)C[C@@]3(C)[C@H]2CC[C@]3(O)C(=O)CO)[C@@]2(C)C=CC(=O)C=C12` [Methylprednisolone] are the same in drug sensitivity score: 0 for the first, 0 for the second.

`N#Cc1ccc(C(c2ccc(C#N)cc2)n2cncn2)cc1` [Letrozole] and `O=C(O)CCCCC(CCSCc1ccccc1)SCc1ccccc1` (stereo not drawn) [CPI-613] are the same in drug sensitivity score: 0 for the first, 0 for the second.

`COc1cc2c(Oc3ccc4[nH]c(C)cc4c3F)ncnc2cc1OCCCN1CCCC1` [Cediranib] and `Cc1cnc(NC(=O)Nc2cc(Br)c(C)cc2OC[C@@H]2CNCCO2)cn1` [Rabusertib] are the same in drug sensitivity score: 0 for the first, 0 for the second.

Going from `O=C(/C=C/c1cccnc1)NCCCCC1CCN(C(=O)c2ccccc2)CC1` [Daporinad] to `Nc1nc2[nH]cc(CCc3ccc(C(=O)N[C@@H](CCC(=O)O)C(=O)O)cc3)c2c(=O)[nH]1` [Pemetrexed], the drug sensitivity score rises from 0 to 0.385.

Compound `Oc1ncc(N(CCCl)CCCl)c(O)n1` [Uracil mustard] has a drug sensitivity score of 0.

What follows are compounds tested on MDA-MB-468 in the same assay as above. Conditions: incubation time: 72 h.
Procedure, shortened: as §1

First: C=CC(=O)N1CCC[C@@H](n2nc(-c3ccc(Oc4ccccc4)cc3)c3c(N)ncnc32)C1 [Ibrutinib]
Second: O=C(Cc1ccc(-c2ccc(OCCN3CCOCC3)cc2)cn1)NCc1ccccc1 [KX2-391]
The drug sensitivity score of the first is lower: 0 for the first, 30.1 for the second.

`CNC(=O)c1cc(Oc2ccc(NC(=O)Nc3cc(C(C)(C)C)nn3-c3ccc4ncccc4c3)c(F)c2)ccn1` [Rebastinib] and `CCCS(=O)(=O)Nc1ccc(F)c(C(=O)c2c[nH]c3ncc(-c4ccc(Cl)cc4)cc23)c1F` [Vemurafenib] are the same in drug sensitivity score: 0 for the first, 0 for the second.

`O=C(O)C1(C(=O)O)CCC1.[NH2-].[NH2-].[Pt+2]` [Carboplatin] and `C[C@H]1C[C@@H]2[C@H]([C@@H](O)C[C@@]3(C)[C@H]2CC[C@]3(O)C(=O)CO)[C@@]2(C)C=CC(=O)C=C12` [Methylprednisolone] are the same in drug sensitivity score: 0 for the first, 0 for the second.

Compared with `N#Cc1ccc(C(c2ccc(C#N)cc2)n2cncn2)cc1` [Letrozole], `O=C(O)CCCCC(CCSCc1ccccc1)SCc1ccccc1` (stereo not drawn) [CPI-613] is lower in drug sensitivity score: 4.02 for the first, 0 for the second.

`COc1cc2c(Oc3ccc4[nH]c(C)cc4c3F)ncnc2cc1OCCCN1CCCC1` [Cediranib] and `Cc1cnc(NC(=O)Nc2cc(Br)c(C)cc2OC[C@@H]2CNCCO2)cn1` [Rabusertib] are the same in drug sensitivity score: 0 for the first, 0 for the second.

Compared with `O=C(/C=C/c1cccnc1)NCCCCC1CCN(C(=O)c2ccccc2)CC1` [Daporinad], `Nc1nc2[nH]cc(CCc3ccc(C(=O)N[C@@H](CCC(=O)O)C(=O)O)cc3)c2c(=O)[nH]1` [Pemetrexed] is higher in drug sensitivity score: 0.89 for the first, 1.29 for the second.

`Oc1ncc(N(CCCl)CCCl)c(O)n1` [Uracil mustard] showed a drug sensitivity score of 0.

The compounds below were run on HDQ-P1 in the same assay as above. Conditions: incubation time: 72 h.
Procedure, shortened: as §1

Going from `C=CC(=O)N1CCC[C@@H](n2nc(-c3ccc(Oc4ccccc4)cc3)c3c(N)ncnc32)C1` [Ibrutinib] to `O=C(Cc1ccc(-c2ccc(OCCN3CCOCC3)cc2)cn1)NCc1ccccc1` [KX2-391], the drug sensitivity score rises from 0.282 to 4.28.

Going from `CNC(=O)c1cc(Oc2ccc(NC(=O)Nc3cc(C(C)(C)C)nn3-c3ccc4ncccc4c3)c(F)c2)ccn1` [Rebastinib] to `CCCS(=O)(=O)Nc1ccc(F)c(C(=O)c2c[nH]c3ncc(-c4ccc(Cl)cc4)cc23)c1F` [Vemurafenib], the drug sensitivity score falls from 4.01 to 0.

`O=C(O)C1(C(=O)O)CCC1.[NH2-].[NH2-].[Pt+2]` [Carboplatin] and `C[C@H]1C[C@@H]2[C@H]([C@@H](O)C[C@@]3(C)[C@H]2CC[C@]3(O)C(=O)CO)[C@@]2(C)C=CC(=O)C=C12` [Methylprednisolone] are the same in drug sensitivity score: 0 for the first, 0 for the second.

`N#Cc1ccc(C(c2ccc(C#N)cc2)n2cncn2)cc1` [Letrozole] and `O=C(O)CCCCC(CCSCc1ccccc1)SCc1ccccc1` (stereo not drawn) [CPI-613] are the same in drug sensitivity score: 0 for the first, 0 for the second.

`COc1cc2c(Oc3ccc4[nH]c(C)cc4c3F)ncnc2cc1OCCCN1CCCC1` [Cediranib] and `Cc1cnc(NC(=O)Nc2cc(Br)c(C)cc2OC[C@@H]2CNCCO2)cn1` [Rabusertib] are the same in drug sensitivity score: 0 for the first, 0 for the second.

`O=C(/C=C/c1cccnc1)NCCCCC1CCN(C(=O)c2ccccc2)CC1` [Daporinad] and `Nc1nc2[nH]cc(CCc3ccc(C(=O)N[C@@H](CCC(=O)O)C(=O)O)cc3)c2c(=O)[nH]1` [Pemetrexed] are the same in drug sensitivity score: 0 for the first, 0 for the second.

In the case of `Oc1ncc(N(CCCl)CCCl)c(O)n1` [Uracil mustard], the drug sensitivity score was 0.

The compounds below were run on BT-474 in the same assay as above. Conditions: incubation time: 72 h.
Procedure, shortened: as §1

Compared with `C=CC(=O)N1CCC[C@@H](n2nc(-c3ccc(Oc4ccccc4)cc3)c3c(N)ncnc32)C1` [Ibrutinib], `O=C(Cc1ccc(-c2ccc(OCCN3CCOCC3)cc2)cn1)NCc1ccccc1` [KX2-391] is higher in drug sensitivity score: 2.25 for the first, 3.97 for the second.

`CNC(=O)c1cc(Oc2ccc(NC(=O)Nc3cc(C(C)(C)C)nn3-c3ccc4ncccc4c3)c(F)c2)ccn1` [Rebastinib] and `CCCS(=O)(=O)Nc1ccc(F)c(C(=O)c2c[nH]c3ncc(-c4ccc(Cl)cc4)cc23)c1F` [Vemurafenib] are the same in drug sensitivity score: 0 for the first, 0 for the second.

`O=C(O)C1(C(=O)O)CCC1.[NH2-].[NH2-].[Pt+2]` [Carboplatin] and `C[C@H]1C[C@@H]2[C@H]([C@@H](O)C[C@@]3(C)[C@H]2CC[C@]3(O)C(=O)CO)[C@@]2(C)C=CC(=O)C=C12` [Methylprednisolone] are the same in drug sensitivity score: 0 for the first, 0 for the second.

`N#Cc1ccc(C(c2ccc(C#N)cc2)n2cncn2)cc1` [Letrozole] and `O=C(O)CCCCC(CCSCc1ccccc1)SCc1ccccc1` (stereo not drawn) [CPI-613] are the same in drug sensitivity score: 0 for the first, 0 for the second.

`COc1cc2c(Oc3ccc4[nH]c(C)cc4c3F)ncnc2cc1OCCCN1CCCC1` [Cediranib] and `Cc1cnc(NC(=O)Nc2cc(Br)c(C)cc2OC[C@@H]2CNCCO2)cn1` [Rabusertib] are the same in drug sensitivity score: 0 for the first, 0 for the second.

`O=C(/C=C/c1cccnc1)NCCCCC1CCN(C(=O)c2ccccc2)CC1` [Daporinad] and `Nc1nc2[nH]cc(CCc3ccc(C(=O)N[C@@H](CCC(=O)O)C(=O)O)cc3)c2c(=O)[nH]1` [Pemetrexed] are the same in drug sensitivity score: 0 for the first, 0 for the second.

With `Oc1ncc(N(CCCl)CCCl)c(O)n1` [Uracil mustard] the drug sensitivity score was 0.

What follows are compounds tested on BT-549 in the same assay as above. Conditions: incubation time: 72 h.
Procedure, shortened: as §1

`C=CC(=O)N1CCC[C@@H](n2nc(-c3ccc(Oc4ccccc4)cc3)c3c(N)ncnc32)C1` [Ibrutinib] and `O=C(Cc1ccc(-c2ccc(OCCN3CCOCC3)cc2)cn1)NCc1ccccc1` [KX2-391] are the same in drug sensitivity score: 0 for the first, 0 for the second.

`CNC(=O)c1cc(Oc2ccc(NC(=O)Nc3cc(C(C)(C)C)nn3-c3ccc4ncccc4c3)c(F)c2)ccn1` [Rebastinib] and `CCCS(=O)(=O)Nc1ccc(F)c(C(=O)c2c[nH]c3ncc(-c4ccc(Cl)cc4)cc23)c1F` [Vemurafenib] are the same in drug sensitivity score: 0 for the first, 0 for the second.

Compared with `O=C(O)C1(C(=O)O)CCC1.[NH2-].[NH2-].[Pt+2]` [Carboplatin], `C[C@H]1C[C@@H]2[C@H]([C@@H](O)C[C@@]3(C)[C@H]2CC[C@]3(O)C(=O)CO)[C@@]2(C)C=CC(=O)C=C12` [Methylprednisolone] is lower in drug sensitivity score: 1.73 for the first, 0 for the second.

`N#Cc1ccc(C(c2ccc(C#N)cc2)n2cncn2)cc1` [Letrozole] and `O=C(O)CCCCC(CCSCc1ccccc1)SCc1ccccc1` (stereo not drawn) [CPI-613] are the same in drug sensitivity score: 0 for the first, 0 for the second.

`COc1cc2c(Oc3ccc4[nH]c(C)cc4c3F)ncnc2cc1OCCCN1CCCC1` [Cediranib] and `Cc1cnc(NC(=O)Nc2cc(Br)c(C)cc2OC[C@@H]2CNCCO2)cn1` [Rabusertib] are the same in drug sensitivity score: 0 for the first, 0 for the second.

`O=C(/C=C/c1cccnc1)NCCCCC1CCN(C(=O)c2ccccc2)CC1` [Daporinad] and `Nc1nc2[nH]cc(CCc3ccc(C(=O)N[C@@H](CCC(=O)O)C(=O)O)cc3)c2c(=O)[nH]1` [Pemetrexed] are the same in drug sensitivity score: 0 for the first, 0 for the second.

In the case of `Oc1ncc(N(CCCl)CCCl)c(O)n1` [Uracil mustard], the drug sensitivity score was 0.

What follows are compounds tested on HCC1937 in the same assay as above. Conditions: incubation time: 72 h.
Procedure, shortened: as §1

Compared with `C=CC(=O)N1CCC[C@@H](n2nc(-c3ccc(Oc4ccccc4)cc3)c3c(N)ncnc32)C1` [Ibrutinib], `O=C(Cc1ccc(-c2ccc(OCCN3CCOCC3)cc2)cn1)NCc1ccccc1` [KX2-391] is higher in drug sensitivity score: 0 for the first, 3.38 for the second.

`CNC(=O)c1cc(Oc2ccc(NC(=O)Nc3cc(C(C)(C)C)nn3-c3ccc4ncccc4c3)c(F)c2)ccn1` [Rebastinib] and `CCCS(=O)(=O)Nc1ccc(F)c(C(=O)c2c[nH]c3ncc(-c4ccc(Cl)cc4)cc23)c1F` [Vemurafenib] are the same in drug sensitivity score: 0 for the first, 0 for the second.

`O=C(O)C1(C(=O)O)CCC1.[NH2-].[NH2-].[Pt+2]` [Carboplatin] and `C[C@H]1C[C@@H]2[C@H]([C@@H](O)C[C@@]3(C)[C@H]2CC[C@]3(O)C(=O)CO)[C@@]2(C)C=CC(=O)C=C12` [Methylprednisolone] are the same in drug sensitivity score: 0 for the first, 0 for the second.

`N#Cc1ccc(C(c2ccc(C#N)cc2)n2cncn2)cc1` [Letrozole] and `O=C(O)CCCCC(CCSCc1ccccc1)SCc1ccccc1` (stereo not drawn) [CPI-613] are the same in drug sensitivity score: 0 for the first, 0 for the second.

`COc1cc2c(Oc3ccc4[nH]c(C)cc4c3F)ncnc2cc1OCCCN1CCCC1` [Cediranib] and `Cc1cnc(NC(=O)Nc2cc(Br)c(C)cc2OC[C@@H]2CNCCO2)cn1` [Rabusertib] are the same in drug sensitivity score: 0 for the first, 0 for the second.

Going from `O=C(/C=C/c1cccnc1)NCCCCC1CCN(C(=O)c2ccccc2)CC1` [Daporinad] to `Nc1nc2[nH]cc(CCc3ccc(C(=O)N[C@@H](CCC(=O)O)C(=O)O)cc3)c2c(=O)[nH]1` [Pemetrexed], the drug sensitivity score falls from 10.4 to 0.

Work on `Oc1ncc(N(CCCl)CCCl)c(O)n1` [Uracil mustard] yielded a drug sensitivity score of 0.

What follows are compounds tested on HCC1143 in the same assay as above. Conditions: incubation time: 72 h.
Procedure, shortened: as §1

`C=CC(=O)N1CCC[C@@H](n2nc(-c3ccc(Oc4ccccc4)cc3)c3c(N)ncnc32)C1` [Ibrutinib] and `CNC(=O)c1cc(Oc2ccc(NC(=O)Nc3cc(C(C)(C)C)nn3-c3ccc4ncccc4c3)c(F)c2)ccn1` [Rebastinib] are the same in drug sensitivity score: 0 for the first, 0 for the second.

For `O=C(O)C1(C(=O)O)CCC1.[NH2-].[NH2-].[Pt+2]` [Carboplatin], the drug sensitivity score was 0.
